According to article PMC2678945 (The Journal of neuroscience : the official journal of the …, 2008):
Read-outs that look alike come from different tables or passages of the source.

Key:
[1] = target: T1, dTRPA1 (Drosophila melanogaster, UniProt Q7Z020); experiment: Whole-cell patch-clamp, HEK293T cells expressing dTRPA1; assay type: cell-based; settings: at +120 mV
T1 sequence (Q7Z020 1-1197): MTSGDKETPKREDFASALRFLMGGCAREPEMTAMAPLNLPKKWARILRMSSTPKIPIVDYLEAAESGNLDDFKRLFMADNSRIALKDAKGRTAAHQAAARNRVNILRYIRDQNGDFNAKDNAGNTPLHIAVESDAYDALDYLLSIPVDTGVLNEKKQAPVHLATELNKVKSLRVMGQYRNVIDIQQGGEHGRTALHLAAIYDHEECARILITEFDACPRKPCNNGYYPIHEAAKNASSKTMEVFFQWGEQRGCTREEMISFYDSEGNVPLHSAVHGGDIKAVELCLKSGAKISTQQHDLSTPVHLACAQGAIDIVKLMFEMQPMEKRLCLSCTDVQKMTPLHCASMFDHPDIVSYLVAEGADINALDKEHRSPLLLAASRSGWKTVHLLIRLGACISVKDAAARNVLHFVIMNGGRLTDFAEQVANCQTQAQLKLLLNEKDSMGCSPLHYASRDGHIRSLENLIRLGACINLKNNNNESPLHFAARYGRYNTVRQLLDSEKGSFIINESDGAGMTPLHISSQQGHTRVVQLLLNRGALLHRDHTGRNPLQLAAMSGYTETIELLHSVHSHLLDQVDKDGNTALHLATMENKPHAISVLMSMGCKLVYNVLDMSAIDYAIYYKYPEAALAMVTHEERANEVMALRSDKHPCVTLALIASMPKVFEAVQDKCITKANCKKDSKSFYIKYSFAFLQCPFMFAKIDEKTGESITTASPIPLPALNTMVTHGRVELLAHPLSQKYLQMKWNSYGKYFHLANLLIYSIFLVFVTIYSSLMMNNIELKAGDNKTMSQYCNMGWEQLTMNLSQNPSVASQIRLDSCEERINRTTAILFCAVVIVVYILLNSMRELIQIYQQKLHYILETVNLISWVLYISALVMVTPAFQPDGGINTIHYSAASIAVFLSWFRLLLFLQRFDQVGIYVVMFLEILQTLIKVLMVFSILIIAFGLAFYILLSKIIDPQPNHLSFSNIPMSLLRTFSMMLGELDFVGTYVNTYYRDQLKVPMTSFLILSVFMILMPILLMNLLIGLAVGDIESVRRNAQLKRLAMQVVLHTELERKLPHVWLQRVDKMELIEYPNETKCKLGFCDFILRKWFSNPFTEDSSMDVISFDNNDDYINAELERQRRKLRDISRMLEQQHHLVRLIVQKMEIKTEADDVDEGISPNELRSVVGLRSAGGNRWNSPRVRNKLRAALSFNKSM

[2] = target: T2, mTRPA1 (Mus musculus, UniProt Q8BLA8); experiment: Whole-cell patch-clamp, HEK293T cells expressing mTRPA1; assay type: cell-based; settings: 100 μM MO in the presence of 500 μM menthol; n = 7
T2 sequence (Q8BLA8 whole entry): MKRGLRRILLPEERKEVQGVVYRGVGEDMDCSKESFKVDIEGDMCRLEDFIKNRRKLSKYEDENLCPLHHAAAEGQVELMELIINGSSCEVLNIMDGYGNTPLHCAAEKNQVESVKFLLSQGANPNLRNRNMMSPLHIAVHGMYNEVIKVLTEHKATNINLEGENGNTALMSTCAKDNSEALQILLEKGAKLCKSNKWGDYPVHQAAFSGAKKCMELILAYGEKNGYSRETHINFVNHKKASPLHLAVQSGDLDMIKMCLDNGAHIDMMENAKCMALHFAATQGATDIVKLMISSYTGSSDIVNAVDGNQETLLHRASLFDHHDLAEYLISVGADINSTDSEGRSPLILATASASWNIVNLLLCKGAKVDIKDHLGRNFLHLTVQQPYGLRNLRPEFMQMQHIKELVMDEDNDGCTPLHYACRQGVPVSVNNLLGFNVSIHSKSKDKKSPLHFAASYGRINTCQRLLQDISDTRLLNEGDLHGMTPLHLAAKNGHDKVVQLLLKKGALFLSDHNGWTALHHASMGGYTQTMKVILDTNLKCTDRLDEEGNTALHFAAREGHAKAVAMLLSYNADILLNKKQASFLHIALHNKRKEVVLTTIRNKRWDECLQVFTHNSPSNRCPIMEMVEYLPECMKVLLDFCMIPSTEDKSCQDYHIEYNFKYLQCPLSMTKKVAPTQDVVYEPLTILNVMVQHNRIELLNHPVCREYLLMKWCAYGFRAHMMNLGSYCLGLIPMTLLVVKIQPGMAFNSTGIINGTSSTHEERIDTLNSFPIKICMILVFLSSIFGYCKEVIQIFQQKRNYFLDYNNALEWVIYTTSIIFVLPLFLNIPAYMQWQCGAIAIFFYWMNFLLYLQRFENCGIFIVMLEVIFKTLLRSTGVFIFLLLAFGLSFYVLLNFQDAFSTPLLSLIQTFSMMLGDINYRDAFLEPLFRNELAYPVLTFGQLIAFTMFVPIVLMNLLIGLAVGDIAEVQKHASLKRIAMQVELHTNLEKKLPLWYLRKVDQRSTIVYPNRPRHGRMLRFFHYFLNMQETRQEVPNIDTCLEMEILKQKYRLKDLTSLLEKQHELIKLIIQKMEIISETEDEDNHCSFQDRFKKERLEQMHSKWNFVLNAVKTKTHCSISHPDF

[3] = target: mTRPA1-hTM5-6 (Mus musculus, UniProt Q8BLA8, A900P/A924S/A946S/D923E/F870L/F897L/F930L/G878V/G942A/I945V/L908I/L929Y/M949I/T903S/T940S/V893I/Y936H); experiment: FLIPR calcium assay, chimera mTRPA1-hTM5-6; assay type: cell-based, mouse / human
Chain of mTRPA1-hTM5-6 (Q8BLA8 1-1125 with the stated changes): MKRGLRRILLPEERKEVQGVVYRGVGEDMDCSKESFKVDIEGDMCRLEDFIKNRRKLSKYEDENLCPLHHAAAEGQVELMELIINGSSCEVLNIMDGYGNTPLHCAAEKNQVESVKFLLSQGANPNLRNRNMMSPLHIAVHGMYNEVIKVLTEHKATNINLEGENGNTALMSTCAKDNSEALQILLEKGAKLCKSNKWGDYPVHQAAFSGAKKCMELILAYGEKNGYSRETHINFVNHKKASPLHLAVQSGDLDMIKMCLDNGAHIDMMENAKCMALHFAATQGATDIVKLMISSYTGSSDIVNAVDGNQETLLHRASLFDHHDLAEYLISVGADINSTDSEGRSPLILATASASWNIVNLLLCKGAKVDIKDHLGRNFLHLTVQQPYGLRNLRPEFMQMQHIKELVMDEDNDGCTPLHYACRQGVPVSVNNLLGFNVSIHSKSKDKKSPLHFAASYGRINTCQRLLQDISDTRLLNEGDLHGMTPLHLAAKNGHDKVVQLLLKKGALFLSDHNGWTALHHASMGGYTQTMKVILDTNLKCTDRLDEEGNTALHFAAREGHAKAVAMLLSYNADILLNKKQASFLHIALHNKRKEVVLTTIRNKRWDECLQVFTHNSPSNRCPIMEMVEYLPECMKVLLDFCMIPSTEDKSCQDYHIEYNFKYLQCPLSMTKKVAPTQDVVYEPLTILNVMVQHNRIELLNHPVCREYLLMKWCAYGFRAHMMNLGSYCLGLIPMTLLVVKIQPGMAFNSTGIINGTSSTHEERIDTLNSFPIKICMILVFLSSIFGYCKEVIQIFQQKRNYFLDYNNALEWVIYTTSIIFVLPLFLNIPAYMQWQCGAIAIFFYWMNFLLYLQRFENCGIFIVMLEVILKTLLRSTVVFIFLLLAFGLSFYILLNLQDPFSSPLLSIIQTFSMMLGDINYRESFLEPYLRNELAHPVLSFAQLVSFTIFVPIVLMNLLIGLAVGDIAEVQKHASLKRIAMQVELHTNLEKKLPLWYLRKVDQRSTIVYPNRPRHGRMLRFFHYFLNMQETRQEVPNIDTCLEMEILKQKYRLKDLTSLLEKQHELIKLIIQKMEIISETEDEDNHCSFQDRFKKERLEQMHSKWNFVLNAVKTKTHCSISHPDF

[4] = target: T3, hTRPA1 (Homo sapiens, UniProt O75762); experiment: FLIPR calcium assay, wild type hTRPA1; assay type: cell-based
T3 sequence (O75762 whole entry): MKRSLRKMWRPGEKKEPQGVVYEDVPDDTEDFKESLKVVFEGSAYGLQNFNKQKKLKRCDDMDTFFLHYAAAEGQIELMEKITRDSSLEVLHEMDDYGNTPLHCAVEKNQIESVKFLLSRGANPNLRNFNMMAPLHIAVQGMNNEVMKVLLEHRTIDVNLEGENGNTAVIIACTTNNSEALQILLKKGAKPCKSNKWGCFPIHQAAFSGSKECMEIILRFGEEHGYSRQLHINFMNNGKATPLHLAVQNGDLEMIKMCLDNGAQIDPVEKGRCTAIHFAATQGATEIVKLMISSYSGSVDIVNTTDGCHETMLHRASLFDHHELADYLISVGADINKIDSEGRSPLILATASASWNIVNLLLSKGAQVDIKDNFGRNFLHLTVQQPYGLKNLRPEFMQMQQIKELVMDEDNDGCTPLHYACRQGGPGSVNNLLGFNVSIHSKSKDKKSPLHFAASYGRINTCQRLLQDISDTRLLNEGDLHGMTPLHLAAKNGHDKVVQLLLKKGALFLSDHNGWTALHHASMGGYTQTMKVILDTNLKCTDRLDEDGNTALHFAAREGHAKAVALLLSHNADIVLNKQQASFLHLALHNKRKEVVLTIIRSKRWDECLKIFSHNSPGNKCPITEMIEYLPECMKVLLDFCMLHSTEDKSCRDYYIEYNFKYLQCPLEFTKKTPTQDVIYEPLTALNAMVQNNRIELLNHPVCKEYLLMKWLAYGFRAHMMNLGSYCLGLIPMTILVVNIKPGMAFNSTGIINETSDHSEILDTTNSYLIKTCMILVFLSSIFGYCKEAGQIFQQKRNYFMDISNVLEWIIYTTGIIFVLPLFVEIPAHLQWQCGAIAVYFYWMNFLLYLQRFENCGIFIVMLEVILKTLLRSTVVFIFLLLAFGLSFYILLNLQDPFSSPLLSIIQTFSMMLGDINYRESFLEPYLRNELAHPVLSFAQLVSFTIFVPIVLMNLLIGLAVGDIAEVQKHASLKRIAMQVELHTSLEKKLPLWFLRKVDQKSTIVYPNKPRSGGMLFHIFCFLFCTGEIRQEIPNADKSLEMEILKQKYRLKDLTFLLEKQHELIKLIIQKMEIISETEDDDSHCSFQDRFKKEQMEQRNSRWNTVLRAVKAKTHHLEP

[5] = target: T2, mTRPA1; experiment: cell-based
[6] = target: T4, hTRPA1-dTM5 (Homo sapiens / Drosophila melanogaster, UniProt O75762+Q7Z020); assay type: cell-based
[7] = tested on: mosquito-TRPA1; experiment: FLIPR calcium assay, mosquito-TRPA1; assay type: cell-based, Anopheles gambiae
[8] = target: hTRPA1-mTM5-6 (Homo sapiens, UniProt O75762, A939G/E920D/H933Y/I890V/I905L/I946M/L867F/L894F/L927F/P897A/S900T/S921A/S937T/S943A/V875G/V942I/Y926L); experiment: FLIPR calcium assay, chimera hTRPA1-mTM5-6; assay type: cell-based, human / mouse
[9] = target: T4, hTRPA1-dTM5; experiment: Whole-cell patch-clamp, HEK293T cells expressing hTRPA1-dTM5; assay type: cell-based; settings: 250 μM menthol
[10] = target: dTRPA1-mN (Mus musculus / Drosophila melanogaster, UniProt Q7Z020+Q8BLA8); assay type: cell-based
Chain of dTRPA1-mN (Q8BLA8 1-720, one chain of several): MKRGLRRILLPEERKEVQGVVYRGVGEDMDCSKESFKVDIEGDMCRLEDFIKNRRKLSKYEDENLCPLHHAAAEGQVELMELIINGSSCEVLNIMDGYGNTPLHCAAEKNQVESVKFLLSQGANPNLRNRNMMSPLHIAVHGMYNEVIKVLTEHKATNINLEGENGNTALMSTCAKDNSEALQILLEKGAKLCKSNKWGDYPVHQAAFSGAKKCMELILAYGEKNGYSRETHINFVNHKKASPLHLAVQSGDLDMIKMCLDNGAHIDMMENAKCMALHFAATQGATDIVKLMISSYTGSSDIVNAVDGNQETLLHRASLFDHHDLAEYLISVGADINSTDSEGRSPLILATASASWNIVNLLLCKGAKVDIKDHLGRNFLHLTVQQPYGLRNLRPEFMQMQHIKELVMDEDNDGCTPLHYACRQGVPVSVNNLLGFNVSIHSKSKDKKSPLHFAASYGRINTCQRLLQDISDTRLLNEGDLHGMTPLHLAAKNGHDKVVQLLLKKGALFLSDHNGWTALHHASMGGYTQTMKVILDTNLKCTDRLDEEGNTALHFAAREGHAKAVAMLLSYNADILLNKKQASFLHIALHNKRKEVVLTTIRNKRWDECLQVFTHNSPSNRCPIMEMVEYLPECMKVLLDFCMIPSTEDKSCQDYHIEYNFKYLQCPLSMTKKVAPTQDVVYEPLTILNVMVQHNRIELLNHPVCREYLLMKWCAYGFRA

[11] = tested on: fugu-TRPA1; experiment: FLIPR calcium assay, fugu-TRPA1; assay type: cell-based, Takifugu
[12] = tested on: mTRPA1-dTM5; experiment: Whole-cell patch-clamp, HEK293T cells expressing mTRPA1-dTM5; assay type: cell-based, mouse / Drosophila melanogaster; settings: 50 μM menthol
[13] = target: hTRPA1-V875G (Homo sapiens, UniProt O75762, V875G); experiment: FLIPR calcium assay, mutant hTRPA1-V875G; assay type: cell-based
[14] = target: hTRPA1-FGFATLIAM (Homo sapiens, UniProt O75762, I905L/I946M/L867F/L894F/P897A/S900T/S943A/V875G/V942I); experiment: FLIPR calcium assay, mutant hTRPA1-[…]; assay type: cell-based
[15] = target: T3, hTRPA1; experiment: Whole-cell patch-clamp, HEK293T cells expressing hTRPA1; assay type: cell-based; settings: 250 μM menthol; at +120 mV; n = 11
[16] = target: mTRPA1-S876V/T877L (Mus musculus, UniProt Q8BLA8, S876V/T877L); assay type: cell-based
[17] = target: T2, mTRPA1; settings: read-out: IC50, inhibition of MO-induced mTRPA1 activity

SMILES: CC(C)[C@@H]1CC[C@@H](C)C[C@H]1O [Menthol, (-)-Menthol]
- change in evoked current in dTRPA1 cells ([1]; 25-100 μM menthol, n = 7): -0.53 ± 0.3 pA/pF
- activation of dTRPA1 current ([1]; 250-500 μM menthol, 3 min of recording): ineffective
- MO-induced mTRPA1 currents at +120 mV, normalized to currents elicited at +180 mV [2]: 16 ± 7%
- EC50 [3]: 43.9 ± 6.4 µM
- inhibition of MO-evoked mTRPA1-hTM5-6 activity ([3]; FLIPR, 100 μM MO): not significantly inhibited
- block of the response of hTRPA1 to 100 μM MO [4]: did not block
- IC50 [5]: 73.4 ± 11.5 µM
- hTRPA1-dTM5 EC50 (Activation) ([6]; FLIPR, responses normalized to 100 μM MO): No activation
- menthol sensitivity of mosquito-TRPA1 [7]: not sensitive
- IC50 [8]: 71 ± 16.5 µM
- activation of hTRPA1-dTM5 current [9]: completely abolished
- menthol effect at dTRPA1-mN [10]: ineffective
- menthol sensitivity of fugu-TRPA1 [11]: not sensitive
- activation of mTRPA1-dTM5 current [12]: completely abolished
- IC50 [13]: 119 ± 16.5 µM
- IC50 [14]: 36.6 ± 9 µM
- whole cell current density evoked in hTRPA1 cells [15]: 59.0 ± 10.2 pA/pF

SMILES: Cl.Cl.Cl.Cl.Cl.Cl.N.N.N.N.N.N.N.N.N.N.N.N.N.N.[O-2].[O-2].[Ru+3].[Ru+3].[Ru+4] [Ruthenium Red, ruthenium red]
- IC50 ([6]; read-out: hTRPA1-dTM5 IC50 (Inhibition)): 0.48 ± 0.03 µM

SMILES: CC(=NO)/C(C)=C\c1ccc(Cl)cc1 [AP18, (Z)-4-(4-chlorophynyl)-3-methylbut-3-en-2-oxime]
- inhibitory effect on MO-induced mTRPA1-S876V/T877L activity [16]: totally abolished
- IC50 [17]: 0.69 ± 0.09 µM
- IC50 ([4]; read-out: hTRPA1 IC50 (Inhibition)): 0.6 ± 0.17 µM
- hTRPA1-dTM5 IC50 (Inhibition) [6]: No inhibition

SMILES: CC(C)=CCC/C(C)=C/CC/C(C)=C/CSc1ccccc1C(=O)O [FTS, Farnesyl thiosalicylic acid]
- EC50 ([4]; read-out: hTRPA1 EC50 (Activation)): 7.3 ± 1.1 µM
- hTRPA1-dTM5 EC50 (Activation) [6]: No activation

SMILES: CC(C)c1ccc(NC(=O)Cn2cnc3c2c(=O)n(C)c(=O)n3C)cc1 [HC030031, 2-(1,3-dimethyl-2,6-dioxo-1,2,3,6-tetrahydro-7H-purin-7-yl)-N-(4-isopropylphenyl)acetamide]
- IC50 [4]: 12.9 ± 2.67 µM
